Consider two compounds from patent publication US12616676B2, “Preparation method and use of modified hydrophobic excipient” (ZHEJIANG ZHIDA PHARMACEUTICAL CO., LTD., priority 2019, dated 2026).

Read-outs that look alike come from different tables or passages of the source.

A short description of the data set: solubility of paclitaxel in olive oil, castor oil and hydrophobic excipients (crystal formation after drying). The data set is classed as physicochemical. As for the experimental part:
The specific experimental method was as follows. […] The chloroform solution was mixed with 0.5 ml of chloroform, from which 0.5 ml of diluent was taken and two-fold serial dilution was performed by using chloroform. Then 0.5 ml of a chloroform solution of paclitaxel (10 mg/ml) was added to the above-mentioned sample after the two-fold serial dilution, and then left in a hood to be naturally volatilized overnight. Crystal formation in the dried sample was observed and recorded.

Turning to `CCCCCCCC/C=C\CCCCCCCCNC(=O)CC[C@@H](C)[C@H]1CC[C@H]2[C@@H]3[C@H](OC(=O)CNC(=O)[C@H](CCCCNC(=O)OC(C)(C)C)NC(=O)OCC4c5ccccc5-c5ccccc54)C[C@@H]4C[C@H](OC(=O)CNC(=O)[C@H](CCCCNC(=O)OC(C)(C)C)NC(=O)OCC5c6ccccc6-c6ccccc65)CC[C@]4(C)[C@H]3C[C@H](OC(=O)CNC(=O)[C@H](CCCCNC(=O)OC(C)(C)C)NC(=O)OCC3c4ccccc4-c4ccccc43)[C@]12C` [Example 4], the “solubility of paclitaxel compared with olive oil and castor oil” value (data comparison in table 1) is “greater than that in olive oil and castor oil”. In addition, the “solubility of paclitaxel (crystal formation in the dried sample)” value is, setting by setting: (hydrophobic excipient 0.98 mg, 0.5 ml chloroform solution of paclitaxel (10 mg/ml), volatilized overnight) “+”; (hydrophobic excipient 1.95 mg, 0.5 ml chloroform solution of paclitaxel (10 mg/ml), volatilized overnight) “+”; (hydrophobic excipient 3.90 mg, 0.5 ml chloroform solution of paclitaxel (10 mg/ml), volatilized overnight) “+”; (hydrophobic excipient 7.81 mg, 0.5 ml chloroform solution of paclitaxel (10 mg/ml), volatilized overnight) “+/−”; (hydrophobic excipient 15.65 mg, 0.5 ml chloroform solution of paclitaxel (10 mg/ml), volatilized overnight) “−”; (hydrophobic excipient 31.30 mg, 0.5 ml chloroform solution of paclitaxel (10 mg/ml), volatilized overnight) “−”. The “solubility of paclitaxel (crystal formation in the dried sample)” value (hydrophobic excipient 62.50 mg, 0.5 ml chloroform solution of paclitaxel (10 mg/ml), volatilized overnight) is given as “−”; the “solubility of paclitaxel (crystal formation in the dried sample)” value (hydrophobic excipient 125.00 mg, 0.5 ml chloroform solution of paclitaxel (10 mg/ml), volatilized overnight) is listed as “−”; the “solubility of paclitaxel (crystal formation in the dried sample)” value (hydrophobic excipient 250.00 mg, 0.5 ml chloroform solution of paclitaxel (10 mg/ml), volatilized overnight) is recorded as “−”.
Consider castor oil, for which the “solubility of paclitaxel (crystal formation in the dried sample)” value was “+”.
